Type in all cases: biochemical
What all share (details): Table D1

Test [1] concerns the target T1, human JAK1 (a.a. 837-1142) (Homo sapiens, UniProt P23458).
T1 construct: human JAK1 (a.a. 837-1142); His tag (N); made in house; host or cells: insect cells (baculovirus)
Description: In vitro JAK kinase assay (HTRF, phosphorylation of a biotinylated peptide), JAK1. An outline of the steps:
(§1)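 Phosphorylation of a biotinylated peptide by the JAK kinase domain, detected by HTRF with Eu-Py20 and SA-APC. ATP was 90 μM for JAK1, 30 μM for JAK2 and 3 μM for JAK3. Reactions ran 1 h at room temperature and were stopped with EDTA, followed by 40 min antibody binding.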
For orientation: In TR-FRET formats the signal depends on donor and acceptor labels being close together.

The target of test [2] is T2, human JAK2 (a.a. 828-1132) (Homo sapiens, UniProt O60674).
T2 construct: JAK2 (a.a. 828-1132); His tag (N); made in house; host or cells: insect cells (baculovirus)
T2 sequence (O60674 828-1132): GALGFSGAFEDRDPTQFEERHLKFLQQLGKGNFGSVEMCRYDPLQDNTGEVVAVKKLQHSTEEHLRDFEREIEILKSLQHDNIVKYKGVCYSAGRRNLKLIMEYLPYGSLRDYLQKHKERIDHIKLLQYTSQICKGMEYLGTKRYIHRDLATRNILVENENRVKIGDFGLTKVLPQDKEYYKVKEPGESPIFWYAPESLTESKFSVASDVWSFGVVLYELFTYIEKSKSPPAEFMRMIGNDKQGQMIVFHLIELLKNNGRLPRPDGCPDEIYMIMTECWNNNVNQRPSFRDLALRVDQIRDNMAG
Description: In vitro JAK kinase assay (HTRF, phosphorylation of a biotinylated peptide), JAK2. An outline of the steps: as §1

Test [3] addresses T3, human JAK3 (a.a. 781-1124) (Homo sapiens, UniProt P52333).
T3 construct: JAK3 (a.a. 781-1124); His tag (N); made in house; host or cells: insect cells (baculovirus)
Description: In vitro JAK kinase assay (HTRF, phosphorylation of a biotinylated peptide), JAK3. An outline of the steps: as §1

The next test addresses TYK2 (Homo sapiens, UniProt P29597). Description: TYK2 kinase inhibition (Table A1).

Like-named read-outs stand apart in the source and are kept apart here. Some results are limits rather than exact numbers.

As usually defined, the IC50 is the concentration needed to halve the response being measured.

Sequence of TYK2 (P29597 whole entry): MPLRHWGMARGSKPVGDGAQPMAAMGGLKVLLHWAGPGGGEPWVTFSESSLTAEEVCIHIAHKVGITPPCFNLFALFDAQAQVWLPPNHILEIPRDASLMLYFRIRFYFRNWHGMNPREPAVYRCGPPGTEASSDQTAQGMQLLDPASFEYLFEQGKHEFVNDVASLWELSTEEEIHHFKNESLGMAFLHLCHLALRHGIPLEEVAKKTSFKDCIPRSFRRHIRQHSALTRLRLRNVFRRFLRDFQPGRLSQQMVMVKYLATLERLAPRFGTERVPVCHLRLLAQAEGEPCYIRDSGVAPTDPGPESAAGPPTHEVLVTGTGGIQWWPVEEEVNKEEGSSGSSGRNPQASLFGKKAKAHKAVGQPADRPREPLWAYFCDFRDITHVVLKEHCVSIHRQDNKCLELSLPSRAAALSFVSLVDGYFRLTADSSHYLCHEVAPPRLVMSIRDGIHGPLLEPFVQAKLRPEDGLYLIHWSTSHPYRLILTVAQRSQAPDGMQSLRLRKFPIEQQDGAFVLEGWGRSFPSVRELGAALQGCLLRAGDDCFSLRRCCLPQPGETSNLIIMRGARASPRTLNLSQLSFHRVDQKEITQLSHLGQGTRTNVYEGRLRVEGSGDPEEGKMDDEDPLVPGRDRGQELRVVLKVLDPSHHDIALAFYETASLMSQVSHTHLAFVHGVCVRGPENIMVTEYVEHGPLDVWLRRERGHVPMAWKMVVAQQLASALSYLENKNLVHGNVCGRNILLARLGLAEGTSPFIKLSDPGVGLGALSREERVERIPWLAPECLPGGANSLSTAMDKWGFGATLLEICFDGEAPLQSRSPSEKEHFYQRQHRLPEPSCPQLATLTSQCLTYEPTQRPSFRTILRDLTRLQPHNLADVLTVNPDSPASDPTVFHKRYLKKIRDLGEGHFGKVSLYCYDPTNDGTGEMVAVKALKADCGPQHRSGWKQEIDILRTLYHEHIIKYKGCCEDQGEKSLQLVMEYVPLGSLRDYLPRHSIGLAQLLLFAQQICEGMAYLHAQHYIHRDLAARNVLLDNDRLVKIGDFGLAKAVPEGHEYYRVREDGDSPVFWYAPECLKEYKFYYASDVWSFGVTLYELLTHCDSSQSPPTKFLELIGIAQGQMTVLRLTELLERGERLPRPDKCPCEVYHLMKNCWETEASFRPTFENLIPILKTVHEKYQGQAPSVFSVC
T1 sequence (P23458 849-1154): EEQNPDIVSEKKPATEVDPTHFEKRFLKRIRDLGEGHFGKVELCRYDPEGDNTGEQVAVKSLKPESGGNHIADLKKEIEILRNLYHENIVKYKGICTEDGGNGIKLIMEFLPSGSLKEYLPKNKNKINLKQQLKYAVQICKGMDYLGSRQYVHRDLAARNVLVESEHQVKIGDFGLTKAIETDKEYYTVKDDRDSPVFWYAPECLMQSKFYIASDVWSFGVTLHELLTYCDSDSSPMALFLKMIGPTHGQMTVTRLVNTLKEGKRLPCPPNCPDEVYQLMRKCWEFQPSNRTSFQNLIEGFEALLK
T3 sequence (P52333 781-1124): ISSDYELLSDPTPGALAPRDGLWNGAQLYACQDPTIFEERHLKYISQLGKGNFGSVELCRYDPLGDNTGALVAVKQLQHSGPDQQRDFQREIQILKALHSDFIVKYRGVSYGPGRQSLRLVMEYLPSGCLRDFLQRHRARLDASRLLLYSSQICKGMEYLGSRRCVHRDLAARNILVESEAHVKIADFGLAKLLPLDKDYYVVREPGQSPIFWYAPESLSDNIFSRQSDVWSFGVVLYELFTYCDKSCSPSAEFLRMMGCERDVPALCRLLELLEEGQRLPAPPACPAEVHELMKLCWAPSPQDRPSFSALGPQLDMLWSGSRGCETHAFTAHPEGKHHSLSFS

With `CC(=O)N1CCC(Nc2ccc3cc2CCc2cncc(c2)Nc2ncc(Cl)c(n2)N3)CC1` [Example D158, N-(1-Acetylpiperidin-4-yl)-6-chloro-2,4,8,18,22-pentaazatetracyclo[14.3.1.1(3,7).1(9,13)]docosa-1(20),3(22),4,6,9(21),10,12,16,18-nonaen-12-amine tris(trifluoroacetate)], the IC50 was 150 nM in test [1] (read-out: JAK1 IC50), more than 400 nM in test [2], more than 400 nM in test [3] and more than 400 nM against TYK2.
With `O=C(Cc1ccccc1)N1CCC(Nc2ccc3cc2CCc2cncc(c2)Nc2ncc(Cl)c(n2)N3)CC1` [Example D159, 6-Chloro-N-[1-(phenylacetyl)piperidin-4-yl]-2,4,8,18,22-pentaazatetracyclo[14.3.1.1(3,7).1(9,13)]docosa-1(20),3(22),4,6,9(21),10,12,16,18-nonaen-12-amine tris(trifluoroacetate)], the IC50 in test [1] (read-out: JAK1 IC50) was 313 nM; in test [2], more than 400 nM; in test [3] it was more than 400 nM; against TYK2 it was more than 400 nM.
Consider `Cc1cc(C(=O)N2CCC(Nc3ccc4cc3CCc3cncc(c3)Nc3ncc(Cl)c(n3)N4)CC2)no1` [Example D160, 6-Chloro-N-{1-[(5-methylisoxazol-3-yl)carbonyl]piperidin-4-yl}-2,4,8,18,22-pentaazatetracyclo[14.3.1.1(3,7).1(9,13)]docosa-1(20),3(22),4,6,9(21),10,12,16,18-nonaen-12-amine tris(trifluoroacetate)], for which the IC50 in test [1] (read-out: JAK1 IC50) is 244 nM; in test [2], 341 nM; in test [3] it was more than 400 nM; at TYK2, more than 400 nM.
For `CC(=O)N1CCC(CCOc2ccc3cc2CCc2cncc(c2)Nc2ncc(Cl)c(n2)N3)CC1` [Example D161, 12-[2-(1-Acetylpiperidin-4-yl)ethoxy]-6-chloro-2,4,8,18,22-pentaazatetracyclo[14.3.1.1(3,7).1(9,13)]docosa-1(20),3(22),4,6,9(21),10,12,16,18-nonaene bis(trifluoroacetate)], the IC50 in test [1] (JAK1 IC50 (nM)) is 85 nM; in test [2], 276 nM; in test [3], more than 400 nM; against TYK2, more than 400 nM.
As to `O=C(Nc1ccccc1)N1CCC(CCOc2ccc3cc2CCc2cncc(c2)Nc2ncc(Cl)c(n2)N3)CC1` [Example D162, 4-(2-{[6-Chloro-2,4,8,18,22-pentaazatetracyclo[14.3.1.1(3,7).1(9,13)]docosa-1(20),3(22),4,6,9(21),10,12,16,18-nonaen-12-yl]oxy}ethyl)-N-phenylpiperidine-1-carboxamide bis(trifluoroacetate)], the IC50 was 10 nM in test [1] (read-out: JAK1 IC50), 71 nM in test [2], more than 400 nM in test [3] and more than 400 nM against TYK2.
Take `N#Cc1ccccc1S(=O)(=O)N1CCC(CCOc2ccc3cc2CCc2cncc(c2)Nc2ncc(Cl)c(n2)N3)CC1` [Example D163, 2-{[4-(2-{[6-Chloro-2,4,8,18,22-pentaazatetracyclo[14.3.1.1(3,7).1(9,13)]docosa-1(20),3(22),4,6,9(21),10,12,16,18-nonaen-12-yl]oxy}ethyl)piperidin-1-yl]sulfonyl}benzonitrilebis(trifluoroacetate)]: the IC50 in test [1] (read-out: JAK1 IC50) is 190 nM; in test [2] it was more than 400 nM; in test [3] it was more than 400 nM; against TYK2, more than 400 nM.
For `Cc1occc1NC(=O)N1CCC(CCOc2ccc3cc2CCc2cncc(c2)Nc2ncc(Cl)c(n2)N3)CC1` [Example D164, 4-(2-{[6-Chloro-2,4,8,18,22-pentaazatetracyclo[14.3.1.1(3,7).1(9,13)]docosa-1(20),3(22),4,6,9(21),10,12,16,18-nonaen-12-yl]oxy}ethyl)-N-(2-methyl-3-furyl)piperidine-1-carboxamide bis(trifluoroacetate)], the IC50 in test [1] (read-out: JAK1 IC50) is 39 nM; in test [2], 75 nM; in test [3], more than 400 nM; on TYK2 it was more than 400 nM.
`O=C(NCc1ccco1)N1CCC(CCOc2ccc3cc2CCc2cncc(c2)Nc2ncc(Cl)c(n2)N3)CC1` [Example D165, 4-(2-{[6-Chloro-2,4,8,18,22-pentaazatetracyclo[14.3.1.1(3,7).1(9,13)]docosa-1(20),3(22),4,6,9(21),10,12,16,18-nonaen-12-yl]oxy}ethyl)-N-(2-furylmethyl)piperidine-1-carboxamide bis(trifluoroacetate)]: the IC50 is 52 nM in test [1] (read-out: JAK1 IC50), 208 nM in test [2], more than 400 nM in test [3] and more than 400 nM against TYK2.
As to `O=C(Nc1ccsc1)N1CCC(CCOc2ccc3cc2CCc2cncc(c2)Nc2ncc(Cl)c(n2)N3)CC1` [Example D166, 4-(2-{[6-Chloro-2,4,8,18,22-pentaazatetracyclo[14.3.1.1(3,7).1(9,13)]docosa-1(20),3(22),4,6,9(21),10,12,16,18-nonaen-12-yl]oxy}ethyl)-N-3-thienylpiperidine-1-carboxamide bis(trifluoroacetate)], the IC50 in test [1] (read-out: JAK1 IC50) is 14 nM; in test [2], 58 nM; in test [3], more than 400 nM; against TYK2, more than 400 nM.
In the case of `O=C(Nc1cccs1)N1CCC(CCOc2ccc3cc2CCc2cncc(c2)Nc2ncc(Cl)c(n2)N3)CC1` [Example D167, 4-(2-{[6-Chloro-2,4,8,18,22-pentaazatetracyclo[14.3.1.1(3,7).1(9,13)]docosa-1(20),3(22),4,6,9(21),10,12,16,18-nonaen-12-yl]oxy}ethyl)-N-2-thienylpiperidine-1-carboxamide bis(trifluoroacetate)], the IC50 in test [1] (read-out: JAK1 IC50) is 57 nM; in test [2], 244 nM; in test [3], more than 400 nM; at TYK2, more than 400 nM.
On to `O=C(Nc1ccc(F)cc1)N1CCC(CCOc2ccc3cc2CCc2cncc(c2)Nc2ncc(Cl)c(n2)N3)CC1` [Example D168, 4-(2-{[6-Chloro-2,4,8,18,22-pentaazatetracyclo[14.3.1.1(3,7).1(9,13)]docosa-1(20),3(22),4,6,9(21),10,12,16,18-nonaen-12-yl]oxy}ethyl)-N-(4-fluorophenyl)piperidine-1-carboxamide bis(trifluoroacetate)], for which the IC50 in test [1] (read-out: JAK1 IC50) was 34 nM; in test [2], 255 nM; in test [3] it was more than 400 nM; at TYK2, more than 400 nM.
Regarding `O=C(Nc1cccc(F)c1)N1CCC(CCOc2ccc3cc2CCc2cncc(c2)Nc2ncc(Cl)c(n2)N3)CC1` [Example D169, 4-(2-{[6-Chloro-2,4,8,18,22-pentaazatetracyclo[14.3.1.1(3,7).1(9,13)]docosa-1(20),3(22),4,6,9(21),10,12,16,18-nonaen-12-yl]oxy}ethyl)-N-(3-fluorophenyl)piperidine-1-carboxamide bis(trifluoroacetate)], the IC50 in test [1] (read-out: JAK1 IC50) was 39 nM; in test [2] it was 235 nM; in test [3], more than 400 nM; against TYK2, more than 400 nM.
For `O=C(Nc1ccccc1F)N1CCC(CCOc2ccc3cc2CCc2cncc(c2)Nc2ncc(Cl)c(n2)N3)CC1` [Example D170, 4-(2-{[6-Chloro-2,4,8,18,22-pentaazatetracyclo[14.3.1.1(3,7).1(9,13)]docosa-1(20),3(22),4,6,9(21),10,12,16,18-nonaen-12-yl]oxy}ethyl)-N-(2-fluorophenyl)piperidine-1-carboxamide bis(trifluoroacetate)], the IC50 in test [1] (read-out: JAK1 IC50) was 23 nM; in test [2], 130 nM; in test [3] it was more than 400 nM; against TYK2, more than 400 nM.
Consider `Cc1noc(C)c1NC(=O)N1CCC(CCOc2ccc3cc2CCc2cncc(c2)Nc2ncc(Cl)c(n2)N3)CC1` [Example D171, 4-(2-{[6-Chloro-2,4,8,18,22-pentaazatetracyclo[14.3.1.1(3,7).1(9,13)]docosa-1(20),3(22),4,6,9(21),10,12,16,18-nonaen-12-yl]oxy}ethyl)-N-(3,5-dimethylisoxazol-4-yl)piperidine-1-carboxamide bis(trifluoroacetate)], for which the IC50 in test [1] (read-out: JAK1 IC50) is 117 nM; in test [2] it was 244 nM; in test [3] it was more than 400 nM; against TYK2, more than 400 nM.
Take `Cc1csc(NC(=O)N2CCC(CCOc3ccc4cc3CCc3cncc(c3)Nc3ncc(Cl)c(n3)N4)CC2)c1` [Example D172, 4-(2-{[6-Chloro-2,4,8,18,22-pentaazatetracyclo[14.3.1.1(3,7).1(9,13)]docosa-1(20),3(22),4,6,9(21),10,12,16,18-nonaen-12-yl]oxy}ethyl)-N-(4-methyl-2-thienyl)piperidine-1-carboxamide bis(trifluoroacetate)]: the IC50 was 130 nM in test [1] (read-out: JAK1 IC50), more than 400 nM in test [2], more than 400 nM in test [3] and more than 400 nM against TYK2.
On to `N#Cc1ccccc1NC(=O)N1CCC(CCOc2ccc3cc2CCc2cncc(c2)Nc2ncc(Cl)c(n2)N3)CC1` [Example D173, 4-(2-{[6-Chloro-2,4,8,18,22-pentaazatetracyclo[14.3.1.1(3,7).1(9,13)]docosa-1(20),3(22),4,6,9(21),10,12,16,18-nonaen-12-yl]oxy}ethyl)-N-(2-cyanophenyl)piperidine-1-carboxamide bis(trifluoroacetate)], for which the IC50 in test [1] (read-out: JAK1 IC50) is 100 nM; in test [2], more than 400 nM; in test [3] it was more than 400 nM; at TYK2, more than 400 nM.

Values taken from patent US8871753B2, “Macrocyclic compounds and their use as kinase inhibitors” (Incyte Corporation, priority 2008, dated 2014).
